From patent publication US20100210649A1, “PYRIDAZINONES AND FURAN-CONTAINING COMPOUNDS” (Sloan-Kettering Institute for Cancer Research, priority 2006, published 2010)
Several values for one entry are separate records, joined by “and”; a condition that tells them apart may be missing. Equal entries are not always repeated. Where two headings read alike, the source gives them in different places.

Experiments:
H1118 = assay: Non Small Cell Lung Cancer proliferation assay (Alamar Blue reduction), H1118; type: cell-based; details: Homo sapiens
Description: (§1) Non Small Cell Lung Cancer Proliferation Assay. To perform the assay, the Non Small Cell Lung Cancer lines are diluted in media and plated into 384 well microplates at a final density of 250 cells in […]. To ensure consistency and minimal pipetting error, the cells are plated using the Multidrop 384 with the following settings: Rocker Switch set at 384, Volume 45 and Column 24.
(§2) Low Controls for this assay are made by treating Non Small Cell Lung Cancer cells with 5 ul of staurosporine at 250 uM in 10% DMSO and 1% SDS. [Final concentration in this assay is 25 uM staurosporine in 1% DMSO and 0.1% SDS.]
(§3) High Controls for this assay are made by treating Non Small Cell Lung Cancer cells with 5 ul of 10% DMSO. [Final concentration in this assay is 1% DMSO].
(§4) The remaining wells of the 384 microplate may be treated with different compounds depending on the study. Important Note: All compounds for testing in this assay should be done at the final concentration of 1% DMSO.
(§5) After addition, the cells are placed in cell culture incubator at 37° C. for 48 hours for complete treatment.
(§6) After drug treatment, cytotoxicity is measured by Alamar Blue reduction. 5 μL of Alamar Blue is added to the 384 microplates using the Flexdrop.
(§7) The cells are incubated for 48 hours at 37° C. to complete the Alamar Blue reduction.
(§8) The final step in the assay is to measure the amount of Alamar Blue reduction. […] The Alamar Blue fluorescence is measured at an excitation of 530 nm and emission of 590 nm.
(§9) For the NSCLC project, the cell based assay was screened against a small molecule library of approximately 200,000 compounds. The compound library is stored in our automated robotic freezer (Biophile) at −20° C. in 100% DMSO. Compound freeze and thaw cycles are kept to a minimum. Compounds for use are diluted into the appropriate concentration and plated into 384 well microplates using our custom built low volume 384-well head tool (TPS 384, Apricot Designs Inc., CA, USA). This assay was performed on a fully automated linear track robotic platform (CRS F3 Robot System, Thermo Electron Corp., Ontario, Canada) utilizing several integrated peripherals for plate handling, liquid dispensing, and readout detection. First, non-small cell lung cancer cell lines are dispensed into 384 well microplates (Corning #3712 Tissue Culture Treated Plate, Corning, N.Y., USA) with 5 μL of test compounds at 100 uM in 10% DMSO for screening studies or […] in 10% DMSO to 50 nM in 10% DMSO for dose response studies. The microplates are then placed at 37° C. for 48 hours to complete treatment of cells with compounds. Next, 5 ul of alamar blue was added using a liquid dispenser (Flexprop Precision Dispenser, Perkin Elmer, Mass., USA) and incubated for 48 hours at 37° C. The alamar blue prompt fluorescence was measured on Victor V (Victor^3 V, Perkin Elmer, Mass., USA) and output data files were loaded into ORIS (Oncology Research Informatics System, MSKCC, NY, USA), a screening data acquisition and analysis platform.
The dose response studies were done with the following standard procedure. First, the cells were counted and dispensed at 250 cells/well into 384-well microplates with compound. The cells were incubated for 48 hours at 37 C to complete treatment, and then alamar blue was added for an additional 48 hours. Finally, alamar blue reduction was measured and the data was loaded into ORIS, our data screening acquisition platform.

H1975 = assay: Non Small Cell Lung Cancer proliferation assay (Alamar Blue reduction), H1975; type: cell-based, human; details: for inhibition at 10 µM: NCI-H1975, primary screening, read-out: PRIMARY HTS [%] H1975 (percentage inhibition); for inhibition at 10 µM / CONFIRMATION [%] 1975: 10 μM compound in 1% DMSO (v/v); for CONFIRMATION [%] 1975: percentage inhibition
How it was run: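 Human NSCLC cells were seeded at 250 cells/well with compound at a final 1% DMSO and treated for 48 hours at 37° C. 1% DMSO served as the high control.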

[1] = test system: NHBE (normal human bronchiolar epithelial cells); assay: cells
H827 = assay: Non Small Cell Lung Cancer proliferation assay (Alamar Blue reduction), H827; type: cell-based; details: Homo sapiens; read-out: Dose Response (uM) H827
Description: […] are grown and maintained in Corning 175 cm2 flasks in RPMI 1640 media supplemented with 10% FBS, 1% antibiotic solution, 1% additional glutamine and pyruvate. These cells have a doubling time of 1-2 days. All cell types are adherent and grow in colonies. The cells should be kept at a density between 50,000 cells/mL -500,000 cells/mL to provide for optimum growth and adequate nutrition. The cell line should be maintained at 37° C. in a humidified atmosphere with 5% CO2 in a sterile cell culture incubator.
as §1, §2, §3, §4, §5, §6, §7, §8, §9

in vitro = details: human
[2] = H1118, 12 point doubling dilution 10 uM to 5 nM, 48 h treatment, alamar blue additional 48 h, read-out: IC50 H1118
[3] = Homo sapiens, NCI-H1975, 48 h, H1975, 12 point doubling dilution 10 uM to 5 nM, 48 h treatment, alamar blue additional 48 h, read-out: IC50 H1975
[4] = Homo sapiens, NCI-H1975, phenylfuran-2-carboxamide SAR summary, read-out: IC50(uM) 1975
[5] = Homo sapiens, NHBE, read-out: IC50(uM) NHBE
[6] = read-out: Dose Response (uM) H1118
[7] = Homo sapiens, NCI-H1975, dose response 10 M to 5 nM, IC50, read-out: Dose Response (uM) H1975

IC50 (H1118; [2])	IC50 (H1975; [3])	IC50 (H1975; phenylfuran-2-carboxamide SAR summary, read-out: IC50(uM) 1975)	IC50 (H1118; [6])	IC50 (H1975; [7])	IC50 (H827)	Structure (SMILES)	IC50 (H1975; [4])	inhibition at 10 µM (H1975; Homo sapiens, H1975)	CONFIRMATION [%] 1975 (H1975)	IC50 ([1]; Homo sapiens, NHBE, read-out: IC50(uM) NHBE, phenylfuran-2-carboxamide SAR summary)	IC50 ([1]; read-out: IC50(uM) NHBE, phenylfuran-2-carboxamide SAR summary)	IC50 (H1118; 48 h, read-out: IC50 H1118)	IC50 [1, 5]	IC50 at 72 h (in vitro; CytoTox (uM) NHBE)	IC50 at 72 h (in vitro; CytoTox (uM) WI-38)
0.38 µM	4.23 µM	1.23 µM	–	–	–	Cc1cccc(NC(=O)c2ccc([N+](=O)[O-])o2)c1 [compound 71762]	1.24 µM	74%	59% and 76%	15.8 µM	14.8 µM	–	–	–	–
0.54 µM	0.54 µM	–	0.44 µM	0.35 µM	0.5 µM	Cc1cccc(-n2ncc(Cl)c(Cl)c2=O)c1C [compound 257018]	–	–	–	–	–	–	–	3.89 µM	7.35 µM
0.94 µM	0.89 µM	–	0.29 µM	0.29 µM	0.32 µM	Cc1ccc(-n2ncc(Cl)c(Cl)c2=O)cc1C [compound 257019]	–	–	–	–	–	–	–	3.24 µM	7.02 µM
0.58 µM	0.58 µM	–	0.34 µM	0.27 µM	0.3 µM	Cc1cc(C)cc(-n2ncc(Cl)c(Cl)c2=O)c1 [compound 257020]	–	–	–	–	–	–	–	3.18 µM	6.78 µM

Structure (SMILES)	IC50 (H1118; [2])	IC50 (H1975; [3])	IC50 (H1975; phenylfuran-2-carboxamide SAR summary, read-out: IC50(uM) 1975)	IC50 (H1118; [6])	IC50 (H1975; [7])	IC50 (H827)	IC50 (H1975; [4])	inhibition at 10 µM (H1975; Homo sapiens, H1975)	CONFIRMATION [%] 1975 (H1975)	IC50 ([1]; Homo sapiens, NHBE, read-out: IC50(uM) NHBE, phenylfuran-2-carboxamide SAR summary)	IC50 ([1]; read-out: IC50(uM) NHBE, phenylfuran-2-carboxamide SAR summary)	IC50 (H1118; 48 h, read-out: IC50 H1118)	IC50 [1, 5]	IC50 at 72 h (in vitro; CytoTox (uM) NHBE)	IC50 at 72 h (in vitro; CytoTox (uM) WI-38)
Cc1ccc(NC(=O)c2ccc([N+](=O)[O-])o2)cc1 [compound 98697]	–	4.57 µM	–	–	–	–	1.09 µM	70%	70%	–	–	0.56 µM	29.4 µM	–	–
O=C(Nc1ccc(Cl)cc1)c1ccc([N+](=O)[O-])o1 [compound 98698, 5-nitro-furan-2-carboxylic acid (4-chloro-phenyl)-amide]	–	2.63 µM	–	–	–	–	0.63 µM	74%	57%	–	–	0.53 µM	21.4 µM	–	–
